Source: patent US12048316B2, “Sweetener and flavor compositions, methods of making and methods of use thereof” (EPC Natural Products Co., Ltd., priority 2018, dated 2024)

Columns and labels:
[1] = HPLC/MS quantitative evaluation: degradation of reaction partners and formation of MRI at various pH-conditions; assay type: physicochemical; settings: pH = 7.0
Procedure: All samples were analyzed by HPLC/ISIS using following conditions.
Quantitative evaluation was performed using external standardization.

[2] = Assay to test DPPH radical-scavenging activity; assay type: biochemical; settings: combinations of amino acids and Reb-A, 100° C.; less pronounced than glucose or xylose
Procedure: 1 mg 1,1-Diphenyl-2-picrylhydrazyl radical (DPPH)/ml ethanol, dilution to assay concentration were prepared in ethanol (40 μg/mL); Calibration samples were prepared with Ascorbic acid in a concentration of 0-10 μg/mL, as a negative control sample, water was used.
Samples in aqueous solution were used as such or diluted with water.
A 0.1 ml sample (or calibration standard) was mixed with 3.9 ml solution of DPPH (100 μMolar) and reacted while protected from light at room temperature for 30 min. Absorbance was determined at 517 nm against ethanol.
10 mM of amino acid and/or 10 mM sugar were dissolved in 10 ml 0.1 mM KH2PO4-buffer, pH=7.8
The samples were kept at 100° C. in sealed glass vials (Pyrex 15 ml with screw caps) for 0 (before reaction), 2.5 or 5.0 hours. Thereafter the samples were transferred to an ice water bath and cooled down to room temperature. These samples were diluted 1:10 and used for the test assay for anti-oxidant potential.

[3] = relative to sucrose (sugar, cane sugar); depends on the tested concentration; cited from earlier work

SMILES	times sweeter than sucrose / sugar [3]	also measured
O=C[C@H](O)[C@@H](O)[C@H](O)[C@H](O)CO [Glu, Glucose]	–	% degradation ([1]; reaction Phe + Gluc): 4.6%
C=C1C[C@@]23CC[C@H]4[C@@](C)(CCC[C@@]4(C)C(=O)O[C@@H]4O[C@H](CO)[C@@H](O)[C@H](O)[C@H]4O)[C@@H]2CC[C@]1(O[C@@H]1O[C@H](CO)[C@@H](O)[C@H](O[C@@H]2O[C@H](CO)[C@@H](O)[C@H](O)[C@H]2O)[C@H]1O[C@@H]1O[C@H](CO)[C@@H](O)[C@H](O)[C@H]1O)C3 [Reb-A, Rebaudioside A]	–	anti-oxidant properties (iron-III reduction, radical scavenging) [2]: substantial anti-oxidant properties
C=C1C[C@@]23CC[C@H]4[C@@](C)(CCC[C@@]4(C)C(=O)O[C@@H]4O[C@H](CO)[C@@H](O)[C@H](O)[C@H]4O)[C@@H]2CC[C@]1(O[C@@H]1O[C@H](CO)[C@@H](O)[C@H](O)[C@H]1O)C3 [Rubusoside]	200 times	–
O=C[C@H](O)[C@@H](O)[C@H](O)CO [Xyl, xylose]	–	% degradation ([1]; reaction Phe + Xyl): 6.3%
O=S(=O)([O-])NC1CCCCC1.[Na+] [sodium cyclamate]	about 30 times	–
OC[C@H]1O[C@H](O[C@]2(CCl)O[C@H](CCl)[C@@H](O)[C@@H]2O)[C@H](O)[C@@H](O)[C@H]1Cl [sucralose]	about 600 times	–
